{
  "source": "patent US11389465B2",
  "about": "“Phosphorylated hexaacyl disaccharides (PHADs) for treating or preventing infections” (VANDERBILT UNIVERSITY, priority 2017, dated 2022)",
  "key": {"[1]": {"system": "tissue macrophages and neutrophils", "assay": "MPLA modulation of tissue macrophages and neutrophils (FIG. 10)", "type": "in vivo, mice", "text": "FIG. 10. MPLA induces resistance to infection via modulation of tissue macrophages and neutrophils. A-C) Total splenic A) macrophages, B) neutrophils, and C) monocytes 3 days after S. aureus inoculation or vehicle in MPLA- and vehicle-primed mice. D) Representative image of F4/80^+ immunohistochemical staining (brown) in kidney 3 days after S. aureus inoculation in MPLA- and vehicle-primed mice E) Optical density quantification of F4/80^+ staining in kidneys. F) Mice were primed with MPLA or vehicle via intraperitoneal injection and 24 hours later pHrodo tagged S. aureus bioparticles were injected into the peritoneal cavity. Peritoneal leukocytes were harvested 6 hours later and assessed for pHrodo MFI via flow cytometry. G) Mice were primed with MPLA or vehicle via intraperitoneal injection and 24 hours later leukocytes were harvested from the peritoneal cavity. Respiratory burst was elicited by 45 minutes of PMA stimulation and DHR 123 MFI of macrophages, neutrophils, and monocytes was assessed by flow cytometry. H) Mice were administered intravenous clodronate-liposomes 24 hours prior to the first MPLA administration. Mice were then inoculated with intravenous 10^8 cfu S. aureus. Kaplan-Meier survival plot after S. aureus infection (n=15 mice/group). I) Mice were administered intravenous anti-Ly6G antibody 24 hours prior to the first MPLA administration. Mice were then inoculated with intravenous 10^8 cfu S. aureus. Kaplan-Meier survival plot after S. aureus infection (n=10 mice/group). J) C57BL6 WT and CCR2^−/− mice were primed with MPLA or vehicle and inoculated with intravenous 10^8 cfu S. aureus. Kaplan-Meier survival plot after S. aureus infection (n=10 mice/group). K) WT C57BL6 and RAG2^−/− mice were injected with intravenous MPLA or vehicle prior to intravenous inoculation with 10^8 cfu S. aureus. Kaplan-Meier survival plot (n=10 mice/group). Data shown as mean+/−SEM. For Kaplan-Meier plots *, p<0.05 via log-rank Mantel-Cox test. Otherwise, *, p<0.05 as determined by ANOVA with Tukey's post-hoc multiple comparison test\nMPLA treatment increases macrophage, monocyte and neutrophil accumulation in the spleen (FIG. 10, A-C), increases macrophage accumulation in S. aureus abscesses (FIG. 10, D-E) and increases macrophage phagocytosis and respiratory burst functions (FIG. 10, F-G)."}, "Staphylococcus aureus": {"system": "Staphylococcus aureus", "assay": "Systemic S. aureus infection after MPLA or PHADs (FIG. 8)", "type": "in vivo, mice", "details": "20 μg/mouse on day 0 and day 1; S. aureus 1×10^8 intravenously on day 2", "procedure": "FIG. 8. PHADs induce bacterial clearance and promote survival post systemic S. aureus infection. […] (B) In one set of experiments, mice were euthanized at 72 hours post-infection and lung, spleen, and kidney tissues were harvested to measure bacterial burden. (C) In a separate set of experiments, mice underwent the same treatment with MPLA or PHADs, followed by infection with S. aureus. However, this group is monitored for 14 days to assess for survival. *p<0.05 compared to vehicle. N=13-16/group in the 3 day clearance experiments, performed in quadruplicate, and n=9-10/group, performed in triplicate.\nIn addition, mice were analyzed for survival after intravenous Staphylococcus aureus infection with treatment of MPLA or PHADs. At Day 0, mice were treated with vehicle, MPLA or PHADs (20 μg/mouse). At Day 1, mice were treated with vehicle, MPLA or PHADs (20 μg/mouse). At Day 2, mice were infected with Staphylococcus aureus (1×10^8 intravenously) and followed for survival."}, "[2]": {"assay": "Physiological response of burned sheep to MPLA infusion (FIG. 7)", "type": "in vivo", "procedure": "FIG. 7. MPLA infusion causes transient physiologic changes in burned sheep. Sheep received 20% total body surface area burn followed 24 hours later by vehicle or MPLA ([…]) infusion. Core body temperature, hemodynamics and pulmonary mechanics were measured for 2 hours after initiation of MPLA or vehicle infusions. […] A transient increase in heart rate (HR) and decrease in mean arterial blood pressure (MAP) were also observed in MPLA-treated sheep.\nSheep were instrumented and received a 20% cutaneous burn. At 24 hours after the burn procedure, MPLA (5 ug/kg) was infused in 10 ml of endotoxin-free lactated Ringer's solution over 10 minutes. The sheep developed a transient 1° C. increase in core temperature at 1 hour after the start of infusion (FIG. 7)."}, "[3]": {"assay": "Physiological response of non-burned sheep to MPLA infusion (FIG. 6)", "type": "in vivo", "details": "1 hour monitoring", "procedure": "FIG. 6. Effects of MPLA infusion at the indicated doses over 10 minutes. Endpoints were recorded over a 1 hour period beginning at the end of the MPLA infusion.\nIn further studies, the response of sheep to MPLA infusion was assessed (FIG. 6). Instrumented sheep received infusions of MPLA at doses of 5, 10 or 30 ug/kg in 10 ml of endotoxin-free lactated Ringer's solution over 10 minutes. Physiological parameters were monitored for 1 hour after MPLA infusion. […] These observations indicate that sheep have sensitivity to MPLA that is very similar to humans."}, "Pseudomonas aeruginosa": {"system": "Pseudomonas aeruginosa", "assay": "Pseudomonas burn wound infection in mice, MPLA given before inoculation (FIG. 1)", "type": "in vivo", "details": "MPLA 20 μg", "procedure": "FIG. 1. MPLA treatment improves host resistance to Pseudomonas burn wound infection. Mice exposed to a 20% full thickness burn wound were treated with MPLA on days 3 and 4 post-burn and were inoculated with 1×10^8 Pseudomonas aeruginosa in the caudad (area 3) portion of the burn wound. A. Wounds were excised 48 hours after inoculation, sectioned into 3 segments (areas 1-3) and homogenized. Bacterial colony forming units (cfu) were determined by culture on agar plates. B. At 4-6 days after infection, wound and lungs were harvested, homogenized and cultured to measure Pseudomonas cfu. C. Survival was determined after Pseudomonas infection. *p<0.05 compared to vehicle.\nConsequently, MPLA is currently employed by Glaxo Smith Kline as a component of the FDA-approved ASO4 vaccine adjuvant system (27, 28). […] It was also shown that total wound bacteria and dissemination of Pseudomonas from the burn wound to the lungs was diminished in mice treated with MPLA (FIG. 1B)."}, "[4]": {"details": "MPLA 5 ug/kg, 24 hours after 20% burn"}, "[5]": {"details": "MPLA 2.5 micrograms/kg (FIG. 7 legend)"}},
  "data": [
    {"substance": "Monophosphoryl Lipid A [MPLA]", "values": [
      {"measurement": "macrophage, monocyte and neutrophil accumulation in the spleen", "setting": "[1]; 3 days after S. aureus inoculation", "value": "increases"},
      {"measurement": "beneficial effects of MPLA after depletion of macrophages or neutrophils", "setting": "[1]; clodronate-liposomes or anti-Ly6G, survival after S. aureus, not with cells of the adaptive immune system", "value": "ablates the beneficial effects of MPLA"},
      {"measurement": "macrophage phagocytosis and respiratory burst functions", "setting": "[1]; intraperitoneal priming, peritoneal leukocytes", "value": "increases"},
      {"measurement": "macrophage accumulation in S. aureus abscesses", "setting": "[1]; kidney, F4/80+ staining, 3 days after inoculation", "value": "increases"},
      {"measurement": "survival", "setting": "Staphylococcus aureus", "value": "improved survival"},
      {"measurement": "cardiac index, mean arterial pressure, central venous pressure, stroke volume, systemic vascular resistance, peak and pause airway pressures and PaO2/FiO2 ratio", "setting": "[2]; [4]", "value": "not significantly changed"},
      {"measurement": "heart rate and pulmonary artery pressure", "setting": "[2]; [4]", "value": "not significantly altered"},
      {"measurement": "increase in core temperature", "setting": "[2]; MPLA 5 ug/kg, 24 hours after 20% burn, transient, at 1 hour after start of infusion", "value": 1, "unit": "°C"},
      {"measurement": "cardiac index (CI), central venous pressure (CVP) and systemic vascular resistance (SVRI)", "setting": "[2]; [5]", "value": "minimally impacted"},
      {"measurement": "mean arterial blood pressure (MAP)", "setting": "[2]; [5]", "value": "significantly decreased at 45 and 60 minutes"},
      {"measurement": "time of peak core body temperature after initiation of infusion", "setting": "[2]; [5]", "value": 75, "unit": "min"},
      {"measurement": "core body temperature", "setting": "[2]; MPLA 2.5 micrograms/kg (FIG. 7 legend), from 45 minutes, still elevated at 2 hours", "value": "increased core body temperature"},
      {"measurement": "heart rate (HR)", "setting": "[2]; MPLA 2.5 micrograms/kg (FIG. 7 legend), returned to baseline at 90 minutes", "value": "significantly increased at 30-75 minutes"},
      {"measurement": "safe dose", "setting": "[2]; burned sheep, infusion over 10 minutes", "value": 5, "unit": "µg/kg"},
      {"measurement": "temperature, heart rate or mean pulmonary artery pressure", "setting": "[3]; MPLA 5 ug/kg infused over 10 minutes", "value": "did not change"},
      {"measurement": "temperature, heart rate and mean pulmonary artery pressure", "setting": "[3]; MPLA 10 or 30 ug/kg infused over 10 minutes", "value": "all parameters were increased"},
      {"measurement": "total wound bacteria and dissemination of Pseudomonas from the burn wound to the lungs", "setting": "Pseudomonas aeruginosa; 20% burn, 4-6 days after infection", "value": "diminished"},
      {"measurement": "survival", "setting": "Pseudomonas aeruginosa; 20% burn, Pseudomonas wound infection", "value": "One hundred"},
      {"measurement": "spread of bacteria within the burn wound (areas 1 and 2)", "setting": "Pseudomonas aeruginosa; 20% cutaneous burn, wound inoculated in area 3", "value": "decreased spread of bacteria within the burn wound"}
    ]}
  ]
}
